From ChEMBL document CHEMBL1201862, “PubChem BioAssay data set” (2004)
Values joined by “and” are separate entries in the source; they are usually repeats but may differ in a detail not shown here. Equal values may be shown once. Active and inactive are the calls of the source.

Columns and labels:
[1] = target: T1, Mannose-6-phosphate isomerase (Homo sapiens, UniProt P34949); experiment: inhibitors of human PMI, primary screen, biochemical, fluorescence intensity, coupled assay (AID 1209)
T1 sequence (P34949 whole entry): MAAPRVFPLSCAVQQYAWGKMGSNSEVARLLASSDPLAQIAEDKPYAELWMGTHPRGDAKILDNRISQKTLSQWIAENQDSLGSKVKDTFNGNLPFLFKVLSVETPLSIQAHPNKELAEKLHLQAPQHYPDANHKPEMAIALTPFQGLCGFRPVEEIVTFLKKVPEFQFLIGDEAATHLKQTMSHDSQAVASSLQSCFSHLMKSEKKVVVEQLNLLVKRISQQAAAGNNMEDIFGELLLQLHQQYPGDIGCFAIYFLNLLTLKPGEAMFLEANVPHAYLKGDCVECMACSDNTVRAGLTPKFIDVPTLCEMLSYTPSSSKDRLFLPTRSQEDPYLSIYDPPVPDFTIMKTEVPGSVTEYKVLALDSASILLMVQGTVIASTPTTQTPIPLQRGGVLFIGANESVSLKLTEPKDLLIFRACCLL

[2] = inhibitors of intracellular T. cruzi replication, confirmation, NIH3T3 host cells, beta-gal luminescence (AID 2044); format: functional, cell-based;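 note: intracellular parasites grown in NIH/3T3 mouse fibroblasts as host cells; luminescent beta-galactosidase reporter signal from transgenic T. cruzi replicating inside host cells; inhibitors lower the luminescence signal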
[3] = cytotoxicity toward NIH3T3 fibroblasts, dose response, counter-screen, cell-based, ATP luminescence, mouse fibroblasts (AID 2010); format: functional;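 note: cells exposed to compound for about 90 hours before reading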
[4] = THP-1 cell cytotoxicity, dose response, cytotoxicity control for non-replicating M. tuberculosis project (AID 489025); format: functional
[5] = HepG2 cell cytotoxicity, dose response, cytotoxicity control for non-replicating M. tuberculosis project (AID 489018); format: functional; conditions: Mycobacterium tuberculosis
[6] = Vero E6 cell cytotoxicity, dose response, cytotoxicity control for non-replicating M. tuberculosis project, secondary assay (AID 492998); format: functional, VeroE6; conditions: Vero C1008
cells [7] = format: functional
Cytochrome P450 3A4 = Cytochrome P450 3A4 (Homo sapiens, UniProt P08684); conditions: Potency;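 note: confirmatory qHTS run detecting inhibitors and substrates of CYP3A4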
Chain of Cytochrome P450 3A4 (P08684 whole entry): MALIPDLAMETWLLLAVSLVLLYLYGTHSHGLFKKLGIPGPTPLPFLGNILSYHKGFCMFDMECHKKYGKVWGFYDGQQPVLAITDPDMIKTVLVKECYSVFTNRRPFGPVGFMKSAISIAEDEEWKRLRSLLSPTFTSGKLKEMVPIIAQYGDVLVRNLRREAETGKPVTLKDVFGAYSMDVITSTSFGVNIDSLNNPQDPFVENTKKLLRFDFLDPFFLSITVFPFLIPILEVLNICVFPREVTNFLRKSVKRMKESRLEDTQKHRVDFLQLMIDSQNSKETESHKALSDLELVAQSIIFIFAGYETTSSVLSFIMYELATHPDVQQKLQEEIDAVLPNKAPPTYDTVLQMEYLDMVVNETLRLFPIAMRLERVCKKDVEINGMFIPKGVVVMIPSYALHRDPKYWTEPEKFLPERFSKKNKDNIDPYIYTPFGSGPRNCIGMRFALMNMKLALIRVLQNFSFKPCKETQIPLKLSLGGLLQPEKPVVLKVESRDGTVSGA

Large T antigen = Large T antigen (Simian virus 40, UniProt P03070); format: functional, Betapolyomavirus macacae;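 note: Confirmatory-stage PubChem screen for compounds that inhibit SV40 T antigen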
Chain of Large T antigen (P03070 whole entry): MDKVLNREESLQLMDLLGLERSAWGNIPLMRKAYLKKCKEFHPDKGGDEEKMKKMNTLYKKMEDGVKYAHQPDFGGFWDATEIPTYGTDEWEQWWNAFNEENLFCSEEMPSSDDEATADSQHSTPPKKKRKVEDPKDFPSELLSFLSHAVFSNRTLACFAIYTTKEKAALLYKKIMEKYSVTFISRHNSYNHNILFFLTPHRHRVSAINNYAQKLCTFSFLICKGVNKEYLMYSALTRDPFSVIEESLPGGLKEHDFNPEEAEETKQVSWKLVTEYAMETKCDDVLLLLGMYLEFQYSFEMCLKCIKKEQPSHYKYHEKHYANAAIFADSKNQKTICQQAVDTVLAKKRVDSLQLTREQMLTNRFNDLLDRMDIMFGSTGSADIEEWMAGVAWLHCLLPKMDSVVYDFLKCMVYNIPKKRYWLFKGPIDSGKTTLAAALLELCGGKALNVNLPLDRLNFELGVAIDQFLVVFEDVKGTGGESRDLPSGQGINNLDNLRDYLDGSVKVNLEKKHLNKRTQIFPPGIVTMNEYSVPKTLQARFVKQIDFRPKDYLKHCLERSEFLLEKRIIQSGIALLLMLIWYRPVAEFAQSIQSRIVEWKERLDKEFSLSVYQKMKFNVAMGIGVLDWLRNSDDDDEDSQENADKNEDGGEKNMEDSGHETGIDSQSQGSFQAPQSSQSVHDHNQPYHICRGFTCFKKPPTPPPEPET

[8] = target: DNA dC->dU-editing enzyme APOBEC-3G (Homo sapiens, UniProt Q9HC16); experiment: Dose Response confirmation of small molecule APOBEC3G DNA Deaminase Inhibitors via a fluorescence-based single-stranded DNA deaminase assay. [Related pubchem assays (depositor defined):AID493012, AID493028]; format: functional
Chain of DNA dC->dU-editing enzyme APOBEC-3G (Q9HC16 whole entry): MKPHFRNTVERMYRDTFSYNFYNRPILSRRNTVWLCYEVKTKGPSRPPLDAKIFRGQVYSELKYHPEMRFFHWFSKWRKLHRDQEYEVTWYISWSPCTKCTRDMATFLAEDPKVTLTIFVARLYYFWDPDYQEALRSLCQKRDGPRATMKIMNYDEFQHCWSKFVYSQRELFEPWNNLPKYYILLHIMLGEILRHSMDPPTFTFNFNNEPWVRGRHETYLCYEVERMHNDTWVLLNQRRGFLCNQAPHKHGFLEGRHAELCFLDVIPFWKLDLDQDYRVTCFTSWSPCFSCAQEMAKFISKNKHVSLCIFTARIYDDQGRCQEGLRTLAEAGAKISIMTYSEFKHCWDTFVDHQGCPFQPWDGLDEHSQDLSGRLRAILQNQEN

SUMO-activating enzyme = SUMO-activating enzyme (Homo sapiens, UniProt Q9UBT2); experiment: SUMOylation inhibitor hit validation, confirmation, SUMOylation inhibitor project, biochemical, AlphaScreen (AID 2018); format: functional
Chain of SUMO-activating enzyme (Q9UBE0 whole entry): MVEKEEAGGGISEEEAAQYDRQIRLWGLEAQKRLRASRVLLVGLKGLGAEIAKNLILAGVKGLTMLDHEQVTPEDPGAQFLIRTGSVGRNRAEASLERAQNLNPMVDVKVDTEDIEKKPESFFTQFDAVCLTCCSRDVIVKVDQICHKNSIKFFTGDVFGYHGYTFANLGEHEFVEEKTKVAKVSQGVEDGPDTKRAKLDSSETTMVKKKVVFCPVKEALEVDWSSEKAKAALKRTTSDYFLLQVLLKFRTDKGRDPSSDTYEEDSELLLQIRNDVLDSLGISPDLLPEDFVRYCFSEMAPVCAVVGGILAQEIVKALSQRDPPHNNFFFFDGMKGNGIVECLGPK
Chain of SUMO-activating enzyme (Q9UBT2 whole entry): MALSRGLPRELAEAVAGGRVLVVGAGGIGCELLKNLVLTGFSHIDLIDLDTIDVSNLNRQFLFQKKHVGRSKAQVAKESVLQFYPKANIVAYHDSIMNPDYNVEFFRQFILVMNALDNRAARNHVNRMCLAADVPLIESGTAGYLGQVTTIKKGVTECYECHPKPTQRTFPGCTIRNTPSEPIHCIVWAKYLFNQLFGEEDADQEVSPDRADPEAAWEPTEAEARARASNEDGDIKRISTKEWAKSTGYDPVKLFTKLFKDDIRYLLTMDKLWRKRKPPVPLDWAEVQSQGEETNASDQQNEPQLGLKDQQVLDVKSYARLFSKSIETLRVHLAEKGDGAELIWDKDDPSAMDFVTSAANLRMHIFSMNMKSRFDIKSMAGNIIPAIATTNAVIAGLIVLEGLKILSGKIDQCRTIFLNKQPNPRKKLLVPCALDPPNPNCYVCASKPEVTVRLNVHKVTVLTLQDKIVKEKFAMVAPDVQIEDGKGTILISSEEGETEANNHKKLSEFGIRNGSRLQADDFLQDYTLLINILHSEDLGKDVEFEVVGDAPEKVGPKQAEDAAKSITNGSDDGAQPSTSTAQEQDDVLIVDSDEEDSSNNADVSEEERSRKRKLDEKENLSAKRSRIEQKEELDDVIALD

[9] = target: T2, Tyrosyl-DNA phosphodiesterase 2 (Homo sapiens, UniProt O95551); experiment: human TDP2 enzyme inhibitors, dose response, biochemical, epi absorbance, IC50 (AID 743297)
T2 sequence (O95551 whole entry): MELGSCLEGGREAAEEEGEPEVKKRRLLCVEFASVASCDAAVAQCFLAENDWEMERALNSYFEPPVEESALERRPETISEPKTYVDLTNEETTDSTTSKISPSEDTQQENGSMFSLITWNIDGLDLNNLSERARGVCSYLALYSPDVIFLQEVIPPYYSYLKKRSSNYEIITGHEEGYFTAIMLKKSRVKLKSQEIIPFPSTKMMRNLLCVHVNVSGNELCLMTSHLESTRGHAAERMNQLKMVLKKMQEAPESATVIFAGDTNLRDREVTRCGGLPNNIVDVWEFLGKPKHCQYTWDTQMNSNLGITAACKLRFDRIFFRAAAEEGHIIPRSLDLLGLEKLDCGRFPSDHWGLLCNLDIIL

cells [10] = format: functional, cell-based
cells [11] = format: functional, cell-based; remark: listed apart in the source
Bcl-2-like protein 10 = target: T3, Bcl-2-like protein 10 (Homo sapiens, UniProt Q9HD36); experiment: displacers of TR3 peptide from Bcl-B, primary screen, selectivity assay for Bfl-1 inhibitor project, biochemical, fluorescence polarization, FITC-TR3 peptide (AID 748);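 note: fluorescence polarization from a fluorescein-labelled TR3 peptide binding purified Bcl-B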
T3 sequence (Q9HD36 whole entry): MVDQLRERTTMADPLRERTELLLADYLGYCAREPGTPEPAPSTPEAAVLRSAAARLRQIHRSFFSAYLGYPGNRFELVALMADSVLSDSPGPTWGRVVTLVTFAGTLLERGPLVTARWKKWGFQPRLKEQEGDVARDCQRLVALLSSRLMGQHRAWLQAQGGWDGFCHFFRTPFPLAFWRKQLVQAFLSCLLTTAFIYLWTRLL

[12] = target: T4, Microphthalmia-associated transcription factor (Homo sapiens, UniProt O75030); experiment: TRPM1 promoter luciferase signal decrease, dose response, MITF inhibitor project, cell-based, SK-MEL-5, cherry-picked, set 3 (AID 493073); format: functional
T4 sequence (O75030 whole entry): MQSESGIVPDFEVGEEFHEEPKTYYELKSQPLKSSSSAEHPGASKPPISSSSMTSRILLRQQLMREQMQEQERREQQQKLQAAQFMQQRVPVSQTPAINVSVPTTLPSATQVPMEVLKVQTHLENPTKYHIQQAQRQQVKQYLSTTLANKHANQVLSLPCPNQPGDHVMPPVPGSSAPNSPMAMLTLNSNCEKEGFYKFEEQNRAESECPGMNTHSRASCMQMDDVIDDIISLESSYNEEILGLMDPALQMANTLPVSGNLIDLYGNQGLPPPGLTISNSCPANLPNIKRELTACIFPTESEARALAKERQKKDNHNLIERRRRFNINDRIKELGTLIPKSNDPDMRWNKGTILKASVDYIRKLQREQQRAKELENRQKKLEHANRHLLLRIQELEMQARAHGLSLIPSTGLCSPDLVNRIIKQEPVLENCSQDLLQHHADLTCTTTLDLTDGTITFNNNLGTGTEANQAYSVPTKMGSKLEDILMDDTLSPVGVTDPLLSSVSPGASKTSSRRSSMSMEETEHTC

[13] = tested on: Streptococcus sp. 'group A'; experiment: growth inhibition of control SK(-) GAS strain, dose response, counter-screen for streptokinase expression inhibitor project, luminescence, kanamycin, BacTiterGlo, confirmation (AID 1900); format: functional, organism-based
[14] = target: T5, Calpain-2 catalytic subunit (Sus scrofa, UniProt P43367); experiment: pig calpain II inhibitor potency, dose response, biochemical, fluorogenic peptide substrate (AID 1420); format: functional
T5 sequence (P43367 whole entry): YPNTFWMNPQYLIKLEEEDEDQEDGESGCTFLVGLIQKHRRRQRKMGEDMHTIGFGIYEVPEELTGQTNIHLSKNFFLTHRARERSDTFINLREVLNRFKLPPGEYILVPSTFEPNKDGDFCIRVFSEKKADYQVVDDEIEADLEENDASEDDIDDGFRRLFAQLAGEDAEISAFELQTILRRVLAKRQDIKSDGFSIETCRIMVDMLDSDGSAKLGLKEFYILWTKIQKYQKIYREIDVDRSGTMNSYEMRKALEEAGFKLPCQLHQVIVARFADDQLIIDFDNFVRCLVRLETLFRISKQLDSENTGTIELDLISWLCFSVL

Streptococcus = experiment: Group A Streptococcus viability loss, dose response, counter-screen for streptokinase expression inhibitor project, luminescence, BacTiterGlo (AID 1915); format: functional, organism-based;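 note: potency for reduction of bacterial viability or growth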
Streptokinase A = target: T6, Streptokinase A (Streptococcus pyogenes serotype M1, UniProt P10520); experiment: S. pyogenes streptokinase expression inhibitors, potency, dose response, plasminogen activation absorbance, OD405 (AID 1914); format: functional, Streptococcus pyogenes M1 GAS;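 note: secreted streptokinase activity via plasminogen activation per viability signal from cell pellet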
T6 sequence (P10520 whole entry): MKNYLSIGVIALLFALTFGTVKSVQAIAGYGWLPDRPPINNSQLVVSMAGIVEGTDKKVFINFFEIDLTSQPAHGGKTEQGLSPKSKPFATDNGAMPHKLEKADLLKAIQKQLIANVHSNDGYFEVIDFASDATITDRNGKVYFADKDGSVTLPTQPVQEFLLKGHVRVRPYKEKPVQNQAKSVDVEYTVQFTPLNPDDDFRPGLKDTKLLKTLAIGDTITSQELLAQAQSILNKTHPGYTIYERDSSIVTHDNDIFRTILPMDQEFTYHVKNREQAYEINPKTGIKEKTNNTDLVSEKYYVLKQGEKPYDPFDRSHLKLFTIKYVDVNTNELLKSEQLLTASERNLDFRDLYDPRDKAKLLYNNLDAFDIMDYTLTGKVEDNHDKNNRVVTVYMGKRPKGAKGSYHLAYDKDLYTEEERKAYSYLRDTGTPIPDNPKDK

[15] = target: T7, Probable nicotinate-nucleotide adenylyltransferase (Staphylococcus aureus (strain N315), UniProt P65502); format: functional, Staphylococcus aureus subsp. aureus N315;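 for IC50 Mean: confirmatory dose-response retesting of NadD inhibitor hits first found in an ultra-high-throughput screen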
T7 sequence (P65502 whole entry): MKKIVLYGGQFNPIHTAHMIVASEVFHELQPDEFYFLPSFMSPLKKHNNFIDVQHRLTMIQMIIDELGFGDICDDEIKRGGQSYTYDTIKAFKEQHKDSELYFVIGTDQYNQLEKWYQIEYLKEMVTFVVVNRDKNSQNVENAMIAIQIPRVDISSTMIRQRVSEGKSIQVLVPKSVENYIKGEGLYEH

[16] = target: T7, Probable nicotinate-nucleotide adenylyltransferase; format: functional, Staphylococcus aureus subsp. aureus N315; conditions: read-out: IC50_Mean
[17] = Luminescence Cell-Based Dose Retest to Confirm Inhibitors of Cancer Stem Cells. [Related pubchem assays (depositor defined):AID2717, AID2721]; format: functional; conditions: Homo sapiens
[18] = target: T8, Ubiquitin-conjugating enzyme E2 N (Homo sapiens, UniProt P61088); format: functional;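 note: Dose-response confirmation in a TR-FRET assay detecting UBC13-driven polyubiquitin chain formation, inhibition measured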
T8 sequence (P61088 whole entry): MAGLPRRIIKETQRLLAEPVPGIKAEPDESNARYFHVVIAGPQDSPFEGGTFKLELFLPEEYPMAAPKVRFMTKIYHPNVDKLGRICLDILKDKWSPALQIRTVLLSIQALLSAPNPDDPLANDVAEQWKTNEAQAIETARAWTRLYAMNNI

CN(C)C(S)=Nc1nc2ccccc2s1
IC50 [1]: 3.79 µM (active)
EC50 [2]: 2.48 µM (active)
EC50 [3]: > 60 µM (not active)

COc1cccc(C(=O)N2N=C(c3ccccn3)CC2(O)C(F)(F)F)c1 (stereo not given)
CC50 [4]: 9.99 µM (active)
CC50 [5]: > 20 µM (active)
CC50 [6]: 10.1 µM (active)
IC50 (cells [7]): 8.68 µM (active)

OCC(O)Cc1ccc2c(c1)OCO2 (stereo not given) [SAFROLGLYCOL]
AC50 (Cytochrome P450 3A4): 39.8 µM (inconclusive)

Cc1c(N2C(=O)/C(=C\c3ccccc3O)SC2=S)c(=O)n(-c2ccccc2)n1C
IC50 (Large T antigen): 45.2 µM (active)
IC50 [8]: 46.2 µM (active)

COc1ccc(C(=O)Nc2ccc(-c3nnn(CC(=O)NCc4ccco4)n3)cc2)cc1
IC50 (SUMO-activating enzyme): 43.1 µM (active)

O=C(Nc1c(-c2ccc3c(c2)OCO3)[nH][nH]c1=O)c1ccc2c(c1)OCO2
IC50 [9]: > 129 µM (inactive)

O=C(COC(=O)c1ccccc1Nc1ccccc1)NCc1ccccc1Cl
EC50 (cells [10]): > 350 µM (not active)
EC50 (cells [11]): > 350 µM (not active)

CCCCNC(=O)COC(=O)c1ccc(Cl)c(S(=O)(=O)N2CCCC2)c1
IC50 (Bcl-2-like protein 10): > 100 µM (inactive)

CCC[n+]1c(C)sc2c3c(ccc21)CCCC3
AC50 [12]: 9.87 µM (active)

COc1ccc(OC)c(NC2=NCCCS2)c1
EC50 (cells [10]): > 350 µM (not active)
EC50 (cells [11]): > 350 µM (not active)

CC1CCC2C(=O)OC(Cc3ccccc3)CN2C1c1ccc(Br)cc1 (stereo not given)
AC50 (Cytochrome P450 3A4): 3.98 µM (inconclusive) and 5.01 µM (inconclusive)

Cc1nc(C(=O)NNC(=O)c2ccc(Cl)cc2)c(C(F)(F)F)o1
CC50 [4]: 27.8 µM (active)
CC50 [5]: > 20 µM (active)
CC50 [6]: > 20 µM (active)
IC50 (cells [7]): 44.9 µM (active)

COC(=O)C1=C(C)N(Cc2ccccc2)[C@]23O[C@](C(=O)OC)(C(=O)N2C1c1ccccc1)C1C(=O)N(c2ccccc2)C(=O)C13 (stereo not given in full)
AC50 (Cytochrome P450 3A4): 5.01 µM (inconclusive) and 3.98 µM (inconclusive)

O=C(Nc1ccc2nc3ccccc3nc2c1)c1ccc(Br)cc1
IC50 (SUMO-activating enzyme): 26.7 µM (active)

O=C(NC(c1ccccc1)c1ccccc1)C1CCCO1 (stereo not given)
EC50 (cells [10]): > 350 µM (not active)
EC50 (cells [11]): > 350 µM (not active)

O=C1c2ccccc2C(=O)c2c1cccc2N1CCN(CCO)CC1
IC50 (Bcl-2-like protein 10): > 25 µM (inactive)

Cc1cc(C(=O)N/N=C/c2ccc([N+](=O)[O-])s2)[nH]n1
EC50 [13]: 1.86 µM (active)
EC50 [2]: 0.612 µM (active)
IC50 [14]: 6.84 µM (not active)
EC50 [3]: > 60 µM (not active)
EC50 (Streptococcus): 2.69 µM (active)
CC50 [4]: > 40 µM (active)
CC50 [6]: 16.9 µM (active)
IC50 (cells [7]): 8.88 µM (active)

Cc1ccnc(NS(=O)(=O)c2ccc(NC(=O)c3cc(-c4ccc(Br)cc4)nc4ccccc34)cc2)n1
EC50 [13]: 7.74 µM (active)
EC50 (Streptokinase A): 5.84 µM (inconclusive)
EC50 (Streptococcus): 68.9 µM (active)
IC50 [15]: 7.03 µM (active)
IC50 [16]: 20.9 µM (active)

C[C@@H](CO)NC(=O)[C@@H]1C=C2c3cccc4[nH]cc(c34)C[C@H]2N(C)C1 [ERGONOVINE]
AC50 (Cytochrome P450 3A4): 20 µM (inconclusive)

OC(CNCC1CCCO1)Cn1c2ccc(Cl)cc2c2cc(Cl)ccc21 (stereo not given)
CC50 [4]: 9.03 µM (active)
AC50 [17]: 3.42 µM (active)
CC50 [5]: 7.5 µM (active)
IC50 [18]: > 20 µM (inactive)
CC50 [6]: 11.2 µM (active)
IC50 (cells [7]): 8.48 µM (active)

CCC(=O)Nc1cccc(NC(C)=O)c1
IC50 (Bcl-2-like protein 10): 56.6 µM (inactive)

CCN(CC)CCCC(C)n1c(-c2ccccc2)nc2c(NCCOC)nc(C)nc21 (stereo not given)
AC50 (Cytochrome P450 3A4): 20 µM (inconclusive)
